Source: patent US11130959B2, “Methods and compositions for combinations of mutations associated with herbicide resistance/tolerance in rice” (priority 2016, dated 2021)

Assays:
[1] = test system: rice line RTA1 (ML0831265-01493, G2096S); test: Field trait tolerance trial, FOP herbicides applied sequentially at 2-leaf and pre-flood; type: in vivo, Oryza sativa; conditions: for injury rates: RTA1, 2× application rates
From the text: (§1) FIG. 20A-FIG. 20D showing % Injury response data and plot pictures. Material tested included ACCase-inhibitor resistant combined ACCase lines (RTA1+RTA2), the RTA1 and the RTA2 singles and the stack RTA1+HPPDi+HPPDni. Two applications (at the 2 leaf and pre-flood stage) used the same rate for both applications. […] (all images taken 4 weeks post preflood app), FIG. 20D Plat order (left to right) RTA1, RTA2, RTA1+RTA2, RTA1+HPPD i+HPPDni, P1003, R0146.
(§2) FIG. 21A-FIG. 21E, show plot pictures and % Injury response for ACCase lines RTA1, RTA2, and the stacks RTA1+RTA2 as well as the stack […], when challenged by increasing doses of the main FOP herbicides. […] FIG. 21A untreated control, FIG. 21B 4× Quizalofop, FIG. 21C 4× Fluazifop, FIG. 21D 4× Propaquizafop. 4 weeks post preflood application. Plot order (left to right) G2096S, RTA2, G2096S+RTA2, G2096S+HPPD, P1003, R0146. FIG. 21E graphical representation.
Yield response after sequential 2-leaf and pre-flood quizalofop application.
(§3) Evaluation of the novel herbicide resistance genes, subject of this application, was conducted with a range of suitable herbicide doses that cover application rates typically used for rice farming operations while also taking into consideration possible deviations from the manufacturer-recommended doses. Considering 1×, the recommended manufacturers or best practice recommended dose, the most frequently evaluated additional doses are 2× and 4× with some experiments including other values.

[2] = test system: rice line RTA1+RTA2 (RL1225468, double homozygous stack); test: as above
From the text: as §1, §2, §3

[3] = test system: common weeds in rice (grass weeds such as barnyard grass); test: Weed control in rice crops; type: in vivo; conditions: in vivo
Description: FIGS. 5A and 5B are photographs of results of trait tolerance trials; weed control by mesotrione herbicide applied pre-planting was evaluated; the plots were planted with a hybrid of the HPPD tolerant line ML0831266-03093; just before planting, the plot on the right FIG. 5B received an application of mesotrione at 210 gmai/ha; the plot on the left FIG. 5A had no herbicide applied either pre-plant or post-emergence; pictures were taken four weeks after planting showing differences in weed appearance.
While testing the tolerant lines, the parent lines were also tested to serve as controls and as an indication of commercial potential as a red rice/wild weedy rice control strategy.
Rice is tolerant to certain ACCase inhibitor herbicides, for example cyhalofop is registered for use in rice. However other ACCase herbicides kill or severely injure rice to varying degrees. […] The applied rates of both types of herbicides giving the weed control are well within the tolerance level of the respective ACCase and HPPD tolerant lines including the combined lines carrying tolerance to both HPPD and ACCase herbicides.

[4] = test system: rice line PL1214418M2-73009 and new lines that inherited the ACCase tolerance; test: Trial of recovery of ACCase tolerance in the combined line; type: in vivo, Oryza sativa; conditions: 0.5×, 1×, 2×, 4× of label rate
Description: Another trial was conducted to confirm recovery of the ACCase inhibitor resistance from the RTA1 mutation as in the line ML0831265-01493. In this trial the new line PL1214418-73009 with combined HPPD and ACCase tolerance was planted in a row along with other various lines including the original donor line ML0831265-01493 (planted in a plot), ML0831266-03093, P1003, R0146 parent line for ACCase tolerance. The lines were all tested with the ACCase herbicides fluazifop at 0.5×, 1×, 2×, and 4× multiples of the label application rate (210 gmai/ha) and quizalofop at 0.5×, 1×, 2×, and 4× multiples of the label application rate (77 gmai/ha).

[5] = test system: rice lines RTA1, RTA2, RTA1+RTA2, RTA1+HPPD; test: Field trial with increasing doses of FOP herbicides, all trait combinations; type: in vivo, Oryza sativa
From the text: 4 weeks post preflood application. […] FIG. 21E graphical representation.

[6] = test system: rice line ML0831265-02283 (RTA2); test: Field validation of tolerance to ACCase herbicide, percent injury 21 days after application; type: in vivo, Oryza sativa; conditions: 2× and 4× of labeled rate (77 gmai/ha), four leaf stage
From the text: After screening a large mutant population, the line ML0831265-02283 also survived application of the ACCase herbicide quizalofop. The line was increased to obtain sufficient seed for larger trials to evaluate its tolerance to ACCase herbicides. The tolerance to ACCase herbicides in line ML0831265-02283 was validated by planting in the field plots (5 feet by 10 feet) of the line, the non-mutant parent line R0146, a second non-mutant line P1003, and the ACCase tolerant line ML0831265-01493. The ACCase herbicide quizalofop was applied at the four leaf stage at 0.5×, 1×, 2×, and 4× multiples of the labeled rate (77 gmai/ha). Twenty one days after the herbicide was applied the plots were evaluated for percent injury caused to the rice based on control plots that had no herbicide application (FIG. 6). The data confirms the tolerance of line ML0831265-02283 and it may even carry more tolerance than line ML0831265-01493 as shown by less injury at the 2× and 4× rates of quizalofop.

[7] = test system: mutant plants carrying RTA2 (R0146 X ML-083126502283F2); test: MutMap F2 population herbicide response scoring; type: in vivo, Oryza sativa; conditions: 3 week old plants, scored 21 days after spray
From the text: A MutMap population was F2 plants from a cross between rice line R0146 X ML-083126502283F2. Pictures were taken 16 days post herbicide spray.
The herbicide Quizalofop was sprayed on the test fields. […] The plants were scored first at 16 days after the herbicide spray and then at 21 days after herbicide spray.
Mutant plants carrying the ‘unknown mutation RTA2’ were resistant. 3 week old plants were sprayed with Quizalofop and the herbicide response was scored 21 days after the spray. Susceptible symptoms were already observed 7 days after the Quizalofop spray, but scoring was done at 21 days. […] Few plants scored 3 (little damage on leaves or new leaf growth observed, and most likely plants will survive) or score 5 (half of the canopy is damaged and hard to predict whether the plants will survive or not), or score 7 (more damage on leaves, plants will not survive).

Structure (SMILES) | rates of injury compared with the other FOP herbicides ([1]; RTA1) | injury ([2]; RTA1+RTA2, 4×, FIG. 21 trial) | control of common grass weeds, such as barnyard grass, in rice [3] | tolerance compared with donor line ML0831265-01493 [4] | usability on the crop ([5]; rates of 2× or less, any trait combination containing RTA1) | injury rates [1] [%] | rates of injury compared with other FOP herbicides ([5]; across all trait combinations) | yield ([1]; RTA1, 1× and 2× application rates) | injury ([2]; RTA1+RTA2, 4× label rate, 4 weeks post preflood application) | injury ([2]; RTA1+RTA2, high application rates, FIG. 21 trial) | maximum dose tolerated with no phytotoxicity ([2]; double homozygous RTA1-RTA2, 2-leaf stage) [oz/acre] | percent injury compared with line ML0831265-01493 [6] | herbicide response [7]
CC(Oc1ccc(Oc2ccc(C(F)(F)F)cn2)cc1)C(=O)O (stereo not shown) [Fluazifop] | much lower than either of the other FOP herbicides | minimal injury | good control | equivalent tolerance | viable |  |  |  |  |  |  |  | 
CC(C)=NOCCOC(=O)[C@@H](C)Oc1ccc(Oc2cnc3cc(Cl)ccc3n2)cc1 [Propaquizafop] |  |  |  |  |  | ~40 | highest rates of injury |  |  |  |  |  | 
CC(Oc1ccc(Oc2cnc3cc(Cl)ccc3n2)cc1)C(=O)O (stereo not shown) [Quizalofop] |  |  | good control | equivalent tolerance |  | ~40 |  | good yield retention | no injury | minimal | 80 | less injury | resistant
